Measurements as given in patent US11090305B2, “Methods and compositions to reduce oxidative stress” (University of Massachusetts, priority 2009, dated 2021).

How the values were obtained:
Ca^2+-dependent NOS [1] = assay: Ca^2+-dependent NOS activity in gastrocnemius muscle, hindlimb ischemia (Example 1); format: in vivo, rat; details: 4 days after AdeNOS or PBS (14 days after induction of ischemia)
Description: A portion of the gastrocnemius muscle harvested on day 4 after AdeNOS or saline administration (14 days after induction of ischemia) was snap frozen in liquid N2 for subsequent analysis of Ca^2+-dependent NOS activity (EMD Chemicals, Gibbstown, N.J.). 50 μg of muscle protein homogenate was incubated in 10 mM NADPH, 1 μCi/μl ^14C-arginine, 6 mM CaCl2, 50 mM Tris.HCl (pH 7.4), 6 μM BH4, 2 μM FAD, and 2 μM FMN for 30 minutes at 37° C. The reaction was stopped with 400 μl of 50 mM Hepes (pH 5.5) and 5 mM EDTA. Identical samples were prepared without CaCl2 and all reactions were performed in duplicate. The radioactivity of the sample eluate was measured in a liquid scintillation counter. Enzyme activity was expressed as […] per minute per microgram protein (CPM/min/ug). The Ca^2+-NOS activity was calculated by subtracting the NOS activity measured without calcium from the total activity measured in the presence of calcium.

[2] = system: ischemic hindlimb of rats; assay: Laser Doppler perfusion imaging of hindlimb blood flow (Example 1); format: in vivo, rat; details: days after AdeNOS or PBS administration
Description: Hindlimb blood flow was determined by means of laser Doppler imaging (Moor Instruments, Ltd., Devon, United Kingdom). Flow was measured preoperatively, immediately after arterial excision, immediately before AdeNOS or saline administration, and on days 4, 7, 21, and 30 thereafter. Scans were obtained during inhalation of 1% isoflurane while core body temperature was maintained between 36.8-37.2° C. by means of a heating element driven by a rectal temperature probe. Scans were repeated three times and the average for each rat determined. Data were expressed as the ratio of ischemic:non-ischemic hindlimb.

[3] = system: ischemic hindlimb of rats; assay: Evaluation of muscle necrosis (NBT staining, H&E, muscle weights) (Example 1); format: in vivo, rat; details: 7 days after AdeNOS or PBS (17 days after induction of ischemia)
Description: Muscle necrosis was determined using cut sections of tibialis anterior and gastrocnemius muscle. Muscle samples were cut transversely into 3 pieces (cuts made in 2 mm increment); two sections were stained with nitroblue tetrazolium (NBT). These sections were incubated in phosphate buffered saline (pH 7.4) containing 0.033% NBT (Fischer Biotech, Austin, Tex.) and 0.133% NADH (Roche Diagnostics, Indianapolis, Ind.) for 10 min, and then fixed in 4% paraformaldehyde for 24 hours. The areas of viable (stained) and non-viable (unstained) tissue were quantified using Image Pro software (Media Cybernetics, Bethesda, Md.) and the average taken for each rat. The third cut muscle section was used for H&E staining.

HSCs = assay: Competitive HSC transplantation, bone marrow repopulation; format: in vivo, mouse; details: for outcome of competitive transplant with CD45.2 WT HSCs: WT donor mice treated 2 weeks before harvest
Description: HSC were purified from freshly harvested bone marrow mononuclear cells as c-Kit^+Sca-1^+CD90.1^lowLin^− by FACS sorting. Recipient mice were C57BL/6 (WT) on standard chow. Recipients underwent lethal irradiation (1100 Rads delivered in 2 doses 3 hr apart). Immediately after the 2nd irradiation, recipients were anesthetized (2% isoflurane) and 10^6 HSC/0.1 ml sterile PBS were transplanted via retro-orbital injection. Mice were followed for 12 weeks before study or administration of AOM.
The functional consequence of this loss of quiescence by competitive transplantation was investigated next, insofar as the presence of quiescent HSC are critical for successful bone marrow reconstitution. HSCs from CD45.2 ApoE^−/− or HCD mice were mixed 1:1 with CD45.1 WT HSCs and then transplanted into lethally irradiated CD45.1 WT recipients.
Activation of p38 MAPK reduces HSC quiescence in Atm^−/− mice. To evaluate this phenomena in hypercholesterolemic mice, ApoE^−/− and WT mice were treated with the selective p38 MAPK inhibitor SB203580 or the MEK 1 inhibitor PD98059 for 2 weeks prior to harvest of HSCs for transplant. CD45.2 ApoE^−/− or WT HSCs with mixed 1:1 with CD45.1 WT HSCs and transplanted into lethally irradiated CD45.1 recipient mice.

[4] = system: p19^Arf, p21^Waf1, and p27^Kip1; assay: RT-PCR expression of p19^Arf, p21^Waf1, p27^Kip1 in HSCs; format: in vivo, mouse
Description: The expression of p15^Ink4b, p16^Ink4a, p18^Ink4c, p19^ARF, P21^Waf1, and p27^Kip1 was determined using RT-PCR, a more sensitive and quantitative assay, in ApoE^−/− and WT HSCs.

Notch1 = Notch1 expression in HSCs and lymphoid progenitors (Example 5); format: in vivo, mouse
Description: Cells were stained with monoclonal antibodies conjugated to various fluoroprobes. These antibodies included: Notch1, cKit (2B8), Sca-1 (E13-161.7), CD4 (L3T4), CD8 (53-6.72), CD90.1, CD25, CD44, TCRβ, NK1.1, γδTCR, CD45.1, CD45.2. The lineage cocktail consisted of CD4, CD8, B220 (RA3-6B2), TER-119, Mac-1 (MI/70), and Gr-1 (RB6-8C5). All antibodies were purchased from BD Bioscience (San Diego, Calif.). FACS analysis was carried out on a FACS Diva.
The Notch family is an evolutionarily conserved system of receptors and ligands that play a fundamental role in regulating cell-fate decision in many types of stem and progenitor cells, including HSCs. Notch1 plays a critical role in lymphocyte differentiation, wherein expression of Notch1 favors T cell differentiation. To clarify the effects of hypercholesterolemia on the expression Notch family, the expression of Notch family was screened in HSCs isolated from WT and ApoE^−/− mice. The percentage of HSCs expressing of Notch1 was higher in hypercholesterolemic than WT mice, whereas no differences in Notch2, Notch4, or Delta-like-1 were noted among groups (FIG. 47A). FIGS. 47A-47D show notch 1 expression is greater in HSCs from hypercholesterolemic mice. […] (B) Within the HSC population, a higher percentage of long term-HSCs expressed Notch1 than did short term-HSCs. This difference was evident in both WT and ApoE^−/− mice, although the percentage of short term-HSCs expressing Notch1 was twofold higher in ApoE^−/− than WT mice. […] (D) Treatment of ApoE^−/−, but not WT mice with SB203580 reduced the percentage of HSCs expressing Notch1. m±sd, n=5, *p<0.05 vs. WT, †p<0.05 vs. ApoE or HCD, p<0.05 vs. long-term HSCs.

PAD patients = details: acute or short term supplementation, literature; cited from earlier work
[5] = system: Ca^2+-independent NOS (iNOS); assay: Ca^2+-independent NOS activity in gastrocnemius muscle (Example 2); format: in vivo, rat; details: 14 days after induction of ischemia
Description: (§1) Rats were sacrificed 14 days after induction of ischemia for determination of gastrocnemius muscle NOS activity. […] Muscles were homogenized in ice-cold buffer (250 mM Tris-HCl, pH 7.4, 10 mM EDTA, 10 mM EGTA), centrifuged, and the protein in the supernatant adjusted to 5 μg/ml. Samples were incubated in 10 mM NADPH, 1 μCi/μl ^14C-Arg, 6 mM CaCl2, 50 mM Tris.HCl (pH 7.4), 6 μM BH4, 2 uM FAD, and 2 μM FMN for 30 minutes at 37° C. The reaction was stopped with 400 μl of 50 mM Hepes, pH 5.5, 5 mM EDTA. Identical samples were prepared without CaCl2 and all reactions were performed in duplicate. The radioactivity of the sample eluate was measured and expressed as CPM/μg protein. The Ca^2+-dependent NOS activity, which corresponds to the sum of the endothelial and neural NOS isoforms, was calculated by subtracting the NOS activity measured in the absence of CaCl2) from the NOS activity measured in the presence of CaCl2). The Ca^2+-independent NOS activity corresponds to inflammatory isoform of NOS, or iNOS.

nitrotyrosine = assay: Nitrotyrosine accumulation in gastrocnemius muscle by western blotting (Example 2); format: in vivo, rat; details: 14 days after induction of ischemia
Description: (§2) Rats were sacrificed 14 days after induction of ischemia for measurement of gastrocnemius muscle eNOS and nitrotyrosine expression. […] Samples were homogenized in liquid nitrogen and transferred to NP-40 lysis buffer, comprised of 50 mM HEPES (pH 7.5), 150 mM NaCl, 10% glycerol, 1.5 mM MgCl2, 1 mM EDTA, 100 mM NaF, 1% NP 40, 1 mM PMSF, and […] aprotinin. The lysates were centrifuged, the supernatant recovered, and the protein concentration determined (Pierce Biotechnology, Rockford, Ill.). […] Membranes were incubated overnight at 4° C. with mouse monoclonal anti-nitrotyrosine (Cayman Chemical Co., Ann Arbor, Mich., 1:1000) or mouse monoclonal anti-eNOS (BD Transduction Laboratories, San Diego, Calif., 1:1000) and then incubated for 2 h with horseradish peroxidase-conjugated anti-mouse IgG antibody (Pierce Biotechnology, 1:5000). Immunoreactive bands were visualized using the enhanced chemiluminescence system (Amersham, Arlington Heights, Ill.). Band density was quantitated by standard densitometry and the intensity of the band of interest expressed as a function of the α-tubulin band.

Ca^2+-dependent NOS [6] = assay: Ca^2+-dependent NOS activity in gastrocnemius muscle (Example 2); format: in vivo, rat; details: 14 days after induction of ischemia
Description: as §1

eNOS = eNOS expression in gastrocnemius muscle by western blotting (Example 2); format: in vivo, rat; details: dietary supplements from 7 days before ischemia; 14 days after induction of ischemia
Description: as §2

wt MSC [7] = assay: Response of wt MSC to adipogenic medium (Oil Red O staining); format: cell-based, mouse; details: WT MSCs, increased concentrations
Description: (§3) Adipocytes were identified by Oil Red O staining. m±sd, n=4, *p<0.05 vs control. […] Endothelial cells were identified by CD31 staining. m±sd, n=4, *p<0.05 vs control, #p<0.05 vs 5 nM.

wt MSC [8] = assay: Nox 4 expression and DCF staining in wt MSC after insulin treatment; format: cell-based, mouse; details: WT MSCs, increased concentrations
Description: as §3

wt MSC [9] = assay: Basal PPARγ, adiponectin, eNOS and p-eNOS expression in wt MSC; format: cell-based, mouse; details: WT MSCs, increased concentrations
Description: as §3

wt MSC [10] = assay: Response of wt MSC to endogenic medium (CD31 staining); format: cell-based, mouse; details: WT MSCs, increased concentrations
Description: as §3

[11] = ApoE^−/− mice, in vivo treatment

C[C@H](O)[C@H](O)[C@H]1CNc2nc(N)[nH]c(=O)c2N1 [BH4, tetrahydrobiopterin]
Ca^2+-dependent NOS activity in gastrocnemius muscle (Ca^2+-dependent NOS [1]): no effect
hindlimb blood flow recovery [2]: no effect
extent of muscle necrosis (NBT staining) [3]: no effect

COc1cccc(-c2cc(=O)c3ccccc3o2)c1N [PD98059]
outcome of competitive transplant with CD45.2 WT HSCs (HSCs): Neither drug affected the outcome
HSC expression of p19^Arf, p21^Waf1, and p27^Kip1 [4, 11]: had no effect
HSC expression of p19^Arf, p21^Waf1, and p27^Kip1 ([4]; WT HSCs): neither drug affected expression of these proteins in WT HSCs

C[S+]([O-])c1ccc(-c2nc(-c3ccncc3)c(-c3ccc(F)cc3)[nH]2)cc1 (stereo not shown) [SB203580]
percentage of HSCs expressing Notch1 (Notch1; WT mice): did not affect the WT group
percentage of HSCs expressing Notch1 (Notch1; hypercholesterolemic mice (ApoE^−/−, HCD), in vivo treatment): significantly reduced the percentage of ApoE^−/− HSCs expressing Notch1
percentage of CD45.2^+ bone marrow mononuclear cells 12 weeks after competitive transplantation (HSCs; ApoE^−/− donor mice treated before HSC harvest (NAC 4 weeks; SB203580, PD98059 2 weeks)): significantly improved the efficacy of ApoE^−/− HSCs in the competitive transplant paradigm
outcome of competitive transplant with CD45.2 WT HSCs (HSCs): Neither drug affected the outcome
HSC expression of p19^Arf, p21^Waf1, and p27^Kip1 [4, 11]: significantly reduced HSC expression of p19^Arf, p21^Waf1, and p27^Kip1
HSC expression of p19^Arf, p21^Waf1, and p27^Kip1 ([4]; WT HSCs): neither drug affected expression of these proteins in WT HSCs

O=C1O[C@H]([C@@H](O)CO)C(O)=C1O [vitamin C, L-ascorbic acid]
PAD symptoms (PAD patients): reduce PAD symptoms

L-arginine α-ketoglutarate
Ca^2+-independent NOS activity in the ischemic gastrocnemius muscle [5]: statistically similar to the normal chow group
nitrotyrosine level in the ischemic gastrocnemius muscle (nitrotyrosine): significantly less than the level noted in rats fed normal chow
Ca^2+-dependent NOS activity in the ischemic gastrocnemius muscle (Ca^2+-dependent NOS [6]): greater than that of rats fed normal chow
eNOS expression in the ischemic gastrocnemius muscle (eNOS): significantly greater than that of rats fed normal chow

insulin: insulin treatment of wt MSC
differentiation towards adipocytes (wt MSC [7]): increased differentiation towards adipocytes
Nox 4 expression and oxidative stress (wt MSC [8]): increased Nox 4 expression and oxidative stress
PPARgamma expression (wt MSC [9]): increased PPARgamma
p-eNOS expression (wt MSC [9]): decreased p-eNOS expression
differentiation towards endothelial cells (wt MSC [10]): decreased differentiation towards endothelial cells
